According to the supplement of paper PMC10307832:

Experiments:
Experiment in all cases: relative viability (nuclei count vs DMSO), 5 days (fraction); higher = more cells survive
Midostaurin + Alpelisib = compound: CO[C@@H]1[C@H](N(C)C(=O)c2ccccc2)C[C@H]2O[C@]1(C)n1c3ccccc3c3c4c(c5c6ccccc6n2c5c31)C(=O)NC4 [Midostaurin] + Cc1nc(NC(=O)N2CCC[C@H]2C(N)=O)sc1-c1ccnc(C(C)(C)C(F)(F)F)c1 [Alpelisib] (partner 2 µM)
Procedure, shortened: (§1)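 Nuclei were stained with Hoechst during a one-step fixation (final 0.05% Triton X-100, 1% formaldehyde, 1 ug/ml Hoechst) carried out 5 days after dosing, then counted on 4× images. The cells, lung cancer lines in 1536-well plates, had been dosed by pin tool the day after seeding with one drug alone or a fixed anchor-drug dose plus five library-drug doses (not always all listed) in √10 steps. Relative viability is the nuclei count in treated wells divided by that in vehicle wells, and each value is the median of duplicate plates.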

Midostaurin + Phenformin = compound: CO[C@@H]1[C@H](N(C)C(=O)c2ccccc2)C[C@H]2O[C@]1(C)n1c3ccccc3c3c4c(c5c6ccccc6n2c5c31)C(=O)NC4 [Midostaurin] + N=C(N)NC(=N)NCCc1ccccc1 [Phenformin] (partner 250 µM)
Procedure, shortened: as §1

Midostaurin + Decitabine = compound: CO[C@@H]1[C@H](N(C)C(=O)c2ccccc2)C[C@H]2O[C@]1(C)n1c3ccccc3c3c4c(c5c6ccccc6n2c5c31)C(=O)NC4 [Midostaurin] + Nc1ncn([C@H]2C[C@H](O)[C@@H](CO)O2)c(=O)n1 [Decitabine] (partner 2 µM)
Procedure, shortened: as §1

[1] = compound: COc1cc(-c2nn([C@H]3CC[C@H](N4CCN(C(C)=O)CC4)CC3)c3ncnc(N)c23)ccc1NC(=O)c1cc2ccccc2n1C + CS(=O)(=O)CCNCc1ccc(-c2ccc3ncnc(Nc4ccc(OCc5cccc(F)c5)c(Cl)c4)c3c2)o1 [Lapatinib] (partner 2 µM)
Procedure, shortened: as §1

[2] = compound: COc1cc(-c2nn([C@H]3CC[C@H](N4CCN(C(C)=O)CC4)CC3)c3ncnc(N)c23)ccc1NC(=O)c1cc2ccccc2n1C + Cc1nc(NC(=O)N2CCC[C@H]2C(N)=O)sc1-c1ccnc(C(C)(C)C(F)(F)F)c1 [Alpelisib] (partner 2 µM)
Procedure, shortened: as §1

| Cell Line | relative viability (Midostaurin + Alpelisib; first compound 0.01 µM) | relative viability (Midostaurin + Alpelisib; first compound 0.03162 µM) | relative viability (Midostaurin + Alpelisib; first compound 0.1 µM) | relative viability (Midostaurin + Alpelisib; first compound 0.3162 µM) | relative viability (Midostaurin + Phenformin; first compound 0.01 µM) | relative viability (Midostaurin + Phenformin; first compound 0.03162 µM) | relative viability (Midostaurin + Phenformin; first compound 0.1 µM) | relative viability (Midostaurin + Phenformin; first compound 0.3162 µM) | relative viability (Midostaurin + Decitabine; first compound 0.01 µM) | relative viability (Midostaurin + Decitabine; first compound 0.03162 µM) | relative viability (Midostaurin + Decitabine; first compound 0.1 µM) | relative viability (Midostaurin + Decitabine; first compound 0.3162 µM) | relative viability ([1]; first compound 0.0128 µM) | relative viability ([1]; first compound 0.04048 µM) | relative viability ([1]; first compound 0.128 µM) | relative viability ([1]; first compound 1.28 µM) | relative viability ([2]; first compound 0.0128 µM) | relative viability ([2]; first compound 0.04048 µM) | relative viability ([2]; first compound 0.128 µM) | relative viability ([2]; first compound 1.28 µM) |
| --- | --- | --- | --- | --- | --- | --- | --- | --- | --- | --- | --- | --- | --- | --- | --- | --- | --- | --- | --- | --- |
| NCI-H1993 | 0.714 | 0.657 | 0.675 | 0.643 | 0.476 | 0.498 | 0.477 | 0.508 | 0.541 | 0.607 | 0.693 | 0.576 | 0.853 | 0.811 | 0.807 | 0.812 | 0.76 | 0.771 | 0.599 | 0.569 |
| NCI-H2009 | 1.24 | 1.01 | 1.05 | 1.16 | 0.428 | 0.464 | 0.48 | 0.372 | 0.426 | 0.353 | 0.351 | 0.361 | 1.26 | 0.438 | 0.961 | 0.888 | 1.15 | 1.2 | 1.16 | 1.08 |
| NCI-H2023 | 0.608 | 0.563 | 0.526 | 0.583 | 0.448 | 0.432 | 0.4 | 0.285 | 0.226 | 0.273 | 0.223 | 0.201 | 0.856 | 0.782 | 0.923 | 0.845 | 0.607 | 0.651 | 0.546 | 0.521 |
| NCI-H2085 | 0.961 | 0.9 | 0.907 | 0.788 | 0.718 | 0.627 | 0.749 | 0.583 | 0.54 | 0.525 | 0.607 | 0.523 | 0.77 | 0.822 | 0.805 | 0.564 | 1.08 | 0.949 | 0.975 | 0.658 |
| NCI-H2087 | 1.2 | 0.978 | 1.05 | 1.06 | 0.457 | 0.474 | 0.445 | 0.399 | 0.276 | 0.323 | 0.357 | 0.194 | 1.05 | 0.659 | 0.93 | 1.17 | 1.29 | 0.781 | 1.27 | 1.2 |
| NCI-H2126 | 0.772 | 0.733 | 0.765 | 0.804 | 0.519 | 0.467 | 0.565 | 0.564 | 0.549 | 0.644 | 0.612 | 0.613 | 0.801 | 0.859 | 0.718 | 0.68 | 0.757 | 0.858 | 0.746 | 0.536 |
| NCI-H2170 | 0.828 | 0.856 | 0.722 | 0.707 | 0.357 | 0.384 | 0.404 | 0.347 | 0.5 | 0.495 | 0.441 | 0.456 | 0.253 | 0.283 | 0.243 | 0.249 | 0.891 | 0.789 | 0.82 | 0.686 |
| NCI-H2347 | 0.995 | 0.988 | 0.964 | 0.992 | 0.254 | 0.384 | 0.337 | 0.248 | 0.599 | 0.584 | 0.567 | 0.611 | 1.1 | 0.874 | 0.927 | 1.05 | 1.05 | 0.948 | 0.924 | 1.03 |
| NCI-H2405 | 0.87 | 0.903 |  | 0.573 | 0.415 | 0.441 | 0.377 | 0.491 | 0.721 | 0.8 | 0.774 | 0.778 | 1.13 | 0.554 | 0.955 | 0.446 | 0.83 | 0.419 | 0.722 | 0.272 |
| NCI-H3122 | 0.86 | 0.683 | 0.924 | 0.878 | 0.376 | 0.369 | 0.372 | 0.363 | 0.394 | 0.395 | 0.531 | 0.551 | 1.04 |  | 0.99 | 0.841 | 0.753 |  | 0.772 | 0.537 |
| PC-3 [JPC-3] | 1 | 0.925 | 1.02 | 1.04 | 0.497 | 0.474 | 0.491 | 0.517 | 0.703 | 0.815 | 0.839 | 0.94 | 0.444 | 0.444 | 0.431 | 0.462 | 1.04 | 1.09 | 1.04 | 1.09 |
| PC-14 | 0.827 | 0.896 | 0.891 | 0.785 | 0.603 | 0.717 | 0.522 | 0.52 | 0.184 | 0.204 | 0.227 | 0.114 | 0.308 | 0.371 | 0.297 | 0.208 | 1.01 | 0.951 | 0.902 | 0.852 |
| RERF-LC-KJ | 0.846 | 1.02 | 0.924 | 0.969 | 0.454 | 0.376 | 0.391 | 0.379 | 0.748 | 0.75 | 0.724 | 0.658 | 0.911 | 0.915 | 0.849 | 0.857 | 0.811 | 0.717 | 0.555 | 0.654 |
| SK-LU-1 | 0.913 | 1.17 | 0.894 | 0.647 | 0.521 | 0.54 | 0.49 | 0.421 | 0.704 | 0.724 | 0.595 | 0.597 | 0.913 | 0.902 | 0.721 | 0.681 | 1.15 | 0.917 | 0.821 | 0.441 |
| SK-MES-1 | 0.886 | 0.818 | 0.986 | 0.671 | 0.647 | 0.582 | 0.631 | 0.562 | 0.42 | 0.41 | 0.333 | 0.381 | 0.397 | 0.561 | 0.443 | 0.451 | 0.972 | 0.872 | 0.789 | 0.668 |
| SW 1573 | 0.73 | 0.721 | 0.805 | 0.618 | 0.379 | 0.462 | 0.41 | 0.308 | 0.52 | 0.741 | 0.524 | 0.476 | 0.981 | 1 | 0.914 | 0.808 | 0.788 | 0.508 | 0.695 | 0.509 |
